For one assay, the target named is T1, TLR8 (Homo sapiens, UniProt Q9NR97).
T1 construct: human HEK-Blue cells co-expressing a TLR7 or TLR8 gene
T1 sequence (Q9NR97 27-1041): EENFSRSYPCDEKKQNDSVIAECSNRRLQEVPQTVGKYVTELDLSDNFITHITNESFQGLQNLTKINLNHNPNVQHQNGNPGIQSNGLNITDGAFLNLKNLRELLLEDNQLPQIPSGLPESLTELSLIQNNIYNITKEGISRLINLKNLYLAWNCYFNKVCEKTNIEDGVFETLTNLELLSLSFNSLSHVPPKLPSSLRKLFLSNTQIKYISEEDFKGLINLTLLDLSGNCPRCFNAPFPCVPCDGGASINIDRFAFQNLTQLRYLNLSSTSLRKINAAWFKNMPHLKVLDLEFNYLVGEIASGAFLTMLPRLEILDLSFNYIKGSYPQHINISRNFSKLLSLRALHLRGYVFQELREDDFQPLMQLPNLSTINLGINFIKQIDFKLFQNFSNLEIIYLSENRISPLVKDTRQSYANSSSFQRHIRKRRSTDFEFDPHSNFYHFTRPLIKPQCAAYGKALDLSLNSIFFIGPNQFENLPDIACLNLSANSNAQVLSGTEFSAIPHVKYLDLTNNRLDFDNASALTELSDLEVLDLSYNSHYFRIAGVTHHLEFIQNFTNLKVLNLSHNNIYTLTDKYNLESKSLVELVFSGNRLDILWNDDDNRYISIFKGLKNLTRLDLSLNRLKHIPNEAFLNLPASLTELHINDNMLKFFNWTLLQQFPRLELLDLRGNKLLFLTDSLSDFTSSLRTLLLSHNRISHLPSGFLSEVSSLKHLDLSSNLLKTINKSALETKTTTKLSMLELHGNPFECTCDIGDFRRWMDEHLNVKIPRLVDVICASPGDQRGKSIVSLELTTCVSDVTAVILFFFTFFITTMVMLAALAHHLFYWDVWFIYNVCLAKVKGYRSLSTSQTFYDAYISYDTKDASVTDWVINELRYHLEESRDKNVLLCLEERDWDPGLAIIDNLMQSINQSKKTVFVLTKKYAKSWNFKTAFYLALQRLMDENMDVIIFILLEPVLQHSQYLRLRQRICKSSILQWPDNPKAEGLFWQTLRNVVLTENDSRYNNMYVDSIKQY
Briefly: In vitro human TLR8 binding reporter assay (HEK-Blue, NF-kB/AP1-inducible SEAP). The format is cell-based. Conditions: activity range, read-out: TLR8 Agonist EC50. In short, it runs like this: (§1)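 EC50s come from NF-kB/AP1-driven SEAP secretion in HEK-Blue cells expressing TLR7 or TLR8, measured with Quanti-Blue after an 18 h compound incubation. Maximal response is defined by a 50 μM reference standard.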
(In general: In a reporter assay the amount or activity of a reporter protein is the signal.)

Another assay deals with THP-1 cells. Nature of the assay: Measurement of IL-1β production, hTRF protocol (second alternative procedure), THP-1 cells. The format is cell-based, human. The conditions noted are these: Homo sapiens, THP-1, IL-1β production, human cells; read-out: NLRP3 hILIB EC50. In short, it runs like this: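 Compounds, dilution series starting at a final 10 μM, were incubated 2 hours at 37° C with PMA-differentiated THP-1 cells (50 ng/ml overnight; 50,000 cells/well, 2% FBS RPMI). Released IL-1β quantified in supernatant by hTRF kit with 1:40 antibody dilution, 4° C overnight, 665/615 nm ratio.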

The target in another assay is T2, TLR7 (Homo sapiens, UniProt Q9NYK1).
T2 construct: human HEK-Blue cells co-expressing a TLR7 or TLR8 gene
T2 sequence (Q9NYK1 27-1049): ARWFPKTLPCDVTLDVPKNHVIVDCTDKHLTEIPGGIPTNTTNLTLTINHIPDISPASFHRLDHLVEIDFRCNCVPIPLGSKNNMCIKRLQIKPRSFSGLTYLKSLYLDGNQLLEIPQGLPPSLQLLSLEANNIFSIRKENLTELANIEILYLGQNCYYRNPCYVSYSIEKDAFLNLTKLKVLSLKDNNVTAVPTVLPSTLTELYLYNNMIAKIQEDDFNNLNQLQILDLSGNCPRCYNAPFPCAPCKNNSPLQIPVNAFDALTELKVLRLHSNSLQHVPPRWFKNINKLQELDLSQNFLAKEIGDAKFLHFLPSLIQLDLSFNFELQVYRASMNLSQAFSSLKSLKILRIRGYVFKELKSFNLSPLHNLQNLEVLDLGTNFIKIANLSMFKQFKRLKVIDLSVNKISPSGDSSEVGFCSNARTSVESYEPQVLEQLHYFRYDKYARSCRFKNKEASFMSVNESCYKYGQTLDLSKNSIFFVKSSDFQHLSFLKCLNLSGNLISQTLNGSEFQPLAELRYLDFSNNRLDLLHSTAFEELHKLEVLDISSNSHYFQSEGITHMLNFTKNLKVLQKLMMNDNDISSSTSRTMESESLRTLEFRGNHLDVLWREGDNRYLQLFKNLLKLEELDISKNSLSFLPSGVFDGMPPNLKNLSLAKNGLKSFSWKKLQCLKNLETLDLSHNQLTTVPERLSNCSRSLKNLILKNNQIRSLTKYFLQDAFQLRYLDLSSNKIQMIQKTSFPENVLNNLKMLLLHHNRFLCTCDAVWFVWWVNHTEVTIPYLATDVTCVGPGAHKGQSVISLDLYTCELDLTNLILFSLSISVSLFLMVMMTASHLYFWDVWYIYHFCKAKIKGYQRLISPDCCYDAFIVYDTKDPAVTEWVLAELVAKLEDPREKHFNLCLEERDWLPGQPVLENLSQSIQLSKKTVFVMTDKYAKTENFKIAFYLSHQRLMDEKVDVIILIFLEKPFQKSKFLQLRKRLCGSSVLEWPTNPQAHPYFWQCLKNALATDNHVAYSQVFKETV
Briefly: In vitro human TLR7 binding reporter assay (HEK-Blue, NF-kB/AP1-inducible SEAP). Type of assay: cell-based. The conditions noted are these: activity range, read-out: TLR7 Agonist EC50. An outline of the steps:
as §1

Some results are limits rather than exact numbers.

By EC50 is commonly meant the midpoint of the concentration-response curve. Consider `CN1CCN(C(=O)CCn2cc3c(N)nc4cc(-c5cc[nH]n5)ccc4c3n2)CC1` [Example 505], for which the EC50 at TLR8 was over 100 µM; in the assay with THP-1 cells, 29.6 µM; on TLR7 it was over 100 µM.
On to `CN(C)C(=O)CCn1cc2c(N)nc3cc(-c4cc[nH]n4)ccc3c2n1` [Example 506], for which the values for the EC50 on TLR8, in the assay on THP-1 cells and on TLR7 were over 100 µM, 1.4 µM and over 100 µM, respectively.
`Nc1nc2cc(-c3cc[nH]n3)ccc2c2nn(CCC(=O)NCc3ccccn3)cc12` [Example 507]: the results for the half-maximal effective concentration (EC50) at TLR8, in the assay on THP-1 cells and at TLR7 were over 100 µM, 17.5 µM and over 100 µM, respectively.
Take `Nc1nc2cc(-c3cc[nH]n3)ccc2c2nn(CCC(=O)N3CCCC3)cc12` [Example 508]: the EC50 at TLR8 is over 100 µM; in the assay with THP-1 cells, 7.37 µM; at TLR7, over 100 µM.
As for `CC(C)(C(=O)N1CCCC1)n1cc2c(N)nc3cc(-c4cc[nH]n4)ccc3c2n1` [Example 509], the values for the EC50 at TLR8, in the assay on THP-1 cells and on TLR7 were over 100 µM, 6.95 µM and over 100 µM, respectively.
As for `CC(C)NC(=O)CCn1cc2c(N)nc3cc(-c4cc[nH]n4)ccc3c2n1` [Example 510], the EC50 at TLR8 is over 100 µM; in the assay on THP-1 cells, 2.47 µM; on TLR7, over 100 µM.
As to `Nc1nc2cc(-c3cc[nH]n3)ccc2c2nn(CCC(=O)NCCO)cc12` [Example 511], the values for the EC50 at TLR8, with THP-1 cells and at TLR7 were over 100 µM, 4.62 µM and over 100 µM, respectively.
On to `Nc1nc2cc(-c3cc[nH]n3)ccc2c2nn(CCC(=O)N3CC(O)C3)cc12` [Example 512], for which the EC50 at TLR8 was over 100 µM; in the assay with THP-1 cells it was 5.82 µM; on TLR7, over 100 µM.
Take `CNC(=O)C(C)(C)n1cc2c(N)nc3cc(-c4cc[nH]n4)ccc3c2n1` [Example 513]: the EC50 is over 100 µM on TLR8, 1.28 µM in the assay with THP-1 cells and over 100 µM at TLR7.
Consider `CC(C)(C(=O)NCC(F)F)n1cc2c(N)nc3cc(-c4cc[nH]n4)ccc3c2n1` [Example 514], for which the half-maximal effective concentration (EC50) on TLR8 was over 100 µM; with THP-1 cells, 1.81 µM; on TLR7, over 100 µM.
`Nc1nc2cc(-c3cc[nH]n3)ccc2c2nn(CCC(=O)NCC(F)F)cc12` [Example 515]: the values for the EC50 on TLR8, in the assay with THP-1 cells and on TLR7 were over 100 µM, 4.09 µM and over 100 µM, respectively.
`N#C[C@H]1CCN(C(=O)CCn2cc3c(N)nc4cc(-c5cc[nH]n5)ccc4c3n2)C1` [Example 516]: the EC50 was over 100 µM on TLR8, 9.67 µM with THP-1 cells and over 100 µM at TLR7.
For `CCNC(=O)CCn1cc2c(N)nc3cc(-c4cc[nH]n4)ccc3c2n1` [Example 517], the EC50 at TLR8 is over 100 µM; in the assay on THP-1 cells it was 1.72 µM; on TLR7, over 100 µM.
Turning to `Cn1cnc(C(=O)NCCc2cc3c(N)nc4cc(-c5cc[nH]n5)ccc4c3[nH]2)c1` [Example 518], the EC50 at TLR8 was over 100 µM; in the assay on THP-1 cells it was 0.53 µM; at TLR7, over 100 µM.
In the case of `Nc1nc2cc(-c3cc[nH]n3)ccc2c2[nH]c(CCNC(=O)c3cccc(O)n3)cc12` [Example 519], the EC50 was over 100 µM on TLR8, 2.07 µM in the assay with THP-1 cells and over 100 µM at TLR7.
Take `Nc1nc2cc(-c3cc[nH]n3)ccc2c2[nH]c(CNCC(F)F)cc12` [Example 520]: the EC50 was over 100 µM on TLR8, 0.09 µM with THP-1 cells and over 100 µM on TLR7.
With `CC(C)(C(=O)NCCO)n1cc2c(N)nc3cc(-c4cc[nH]n4)ccc3c2n1` [Example 521], the EC50 at TLR8 was over 100 µM; in the assay with THP-1 cells, 5.67 µM; on TLR7, over 100 µM.
For the compound `CC(C)(CO)NC(=O)C(C)(C)n1cc2c(N)nc3cc(-c4cc[nH]n4)ccc3c2n1` [Example 522], the results for the EC50 on TLR8, in the assay on THP-1 cells and at TLR7 were over 100 µM, 12.2 µM and over 100 µM, respectively.
With `CC(C)(C(=O)N1CC(F)(F)C1)n1cc2c(N)nc3cc(-c4cc[nH]n4)ccc3c2n1` [Example 523], the values for the EC50 at TLR8, with THP-1 cells and at TLR7 were over 100 µM, 7.3 µM and over 100 µM, respectively.
For the compound `CC(C)(C(=O)NC1CCC1)n1cc2c(N)nc3cc(-c4cc[nH]n4)ccc3c2n1` [Example 524], the figures for the EC50 at TLR8, in the assay with THP-1 cells and at TLR7 were over 100 µM, 2.03 µM and over 100 µM, respectively.
As for `CC(C)(C(=O)NCc1ccccn1)n1cc2c(N)nc3cc(-c4cc[nH]n4)ccc3c2n1` [Example 525], the values for the EC50 on TLR8, in the assay with THP-1 cells and at TLR7 were over 100 µM, 20.2 µM and over 100 µM, respectively.
Regarding `CCS(=O)(=O)CCn1cc2c(n1)c(N)nc1cc(-c3cc[nH]n3)ccc12` [Example 526], the EC50 was over 100 µM on TLR8, 0.7 µM in the assay on THP-1 cells and over 100 µM at TLR7.
As to `NC(=O)C1(Cn2cc3c(n2)c(N)nc2cc(-c4cc[nH]n4)ccc23)CC1` [Example 527], the EC50 at TLR8 was over 100 µM; in the assay with THP-1 cells, 0.4 µM; on TLR7, over 100 µM.
`Nc1nc2cc(-c3cc[nH]n3)ccc2c2cn(CC(=O)N3CCCC3)nc12` [Example 528]: the EC50 on TLR8 is over 100 µM; with THP-1 cells, 0.51 µM; on TLR7 it was over 100 µM.
On to `CCNC(=O)Cn1cc2c(n1)c(N)nc1cc(-c3cc[nH]n3)ccc12` [Example 529], for which the results for the EC50 on TLR8, with THP-1 cells and at TLR7 were over 100 µM, 0.87 µM and over 100 µM, respectively.
As for `C[C@H](Cn1cc2c(n1)c(N)nc1cc(-c3cc[nH]n3)ccc12)NS(C)(=O)=O` [Example 530], the EC50 on TLR8 is over 100 µM; in the assay on THP-1 cells, 0.68 µM; on TLR7, over 100 µM.
With `C[C@@H](Cn1cc2c(n1)c(N)nc1cc(-c3cc[nH]n3)ccc12)NS(C)(=O)=O` [Example 531], the results for the EC50 at TLR8, in the assay on THP-1 cells and on TLR7 were over 100 µM, 1.68 µM and over 100 µM, respectively.
With `Nc1nc2cc(-c3cc[nH]n3)ccc2c2cn(CC(=O)N3CCOCC3)nc12` [Example 532], the values for the EC50 at TLR8, in the assay with THP-1 cells and at TLR7 were over 100 µM, 0.34 µM and over 100 µM, respectively.
Take `Nc1nc2cc(-c3cc[nH]n3)ccc2c2cn(CC(=O)N[C@@H]3CCOC3)nc12` [Example 533]: the EC50 was over 100 µM at TLR8, 2.28 µM in the assay with THP-1 cells and over 100 µM on TLR7.
For the compound `CC(C)NC(=O)Cn1cc2c(n1)c(N)nc1cc(-c3cc[nH]n3)ccc12` [Example 534], the EC50 on TLR8 is over 100 µM; in the assay on THP-1 cells it was 0.71 µM; on TLR7, over 100 µM.

The values are drawn from US12037344B2, “NLRP3 modulators” (INNATE TUMOR IMMUNITY, INC., priority 2018, dated 2024).
